Measurements as given in publication PMC9696335, “Natural Inhibitors Targeting the Localization of Lipoprotein System in Vibrio parahaemolyticus” (International Journal of Molecular Sciences, 2022).

Columns and labels:
[1] = biological target: T1, LolB (Vibrio parahaemolyticus, UniProt Q87RN6); test: intrinsic fluorescence quenching of purified LolB, one-site binding fit
T1 construct: Residues 26-212, N-terminal His6 tag

[2] = biological target: T1, LolB; test: intrinsic fluorescence quenching of purified LolB (Stern-Volmer Ksv; Kd only said to be micromolar); type: binding

T1 sequence (Q87RN6 17-203): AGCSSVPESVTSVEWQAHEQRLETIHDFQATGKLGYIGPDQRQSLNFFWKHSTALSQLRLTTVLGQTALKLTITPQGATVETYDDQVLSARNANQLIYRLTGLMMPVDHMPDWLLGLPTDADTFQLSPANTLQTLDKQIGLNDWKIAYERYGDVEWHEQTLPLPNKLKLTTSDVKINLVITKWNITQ

SMILES	Kd [1] [µM]	Ksv (10^4 L/mol) [2]
Oc1cc(O)c2c(c1)O[C@@H](c1ccc(O)c(O)c1)[C@@H](O[C@]1(c3ccc(O)c(O)c3)Oc3cc(O)cc(O)c3[C@@H](O)[C@H]1O)C2 [procyanidin]	14.7 ± 4.65	–
C=C1C[C@@]23CC[C@H]4[C@@](C)(CCC[C@@]4(C)C(=O)O[C@@H]4O[C@H](CO)[C@@H](O)[C@H](O)[C@H]4O)[C@@H]2CC[C@]1(O[C@@H]1O[C@H](CO)[C@@H](O)[C@H](O)[C@H]1O[C@@H]1O[C@H](CO)[C@@H](O)[C@H](O)[C@H]1O)C3 [stevioside]	–	6.1570 10^4 L/mol
C[C@@H]1O[C@@H](OC[C@H]2O[C@@H](Oc3c(-c4ccc(O)c(O)c4)oc4cc(O)cc(O)c4c3=O)[C@H](O)[C@@H](O)[C@@H]2O)[C@H](O)[C@H](O)[C@H]1O [rutin]	–	8.7014 10^4 L/mol
C[C@@H]1O[C@@H](OC[C@H]2O[C@@H](Oc3c(-c4ccc(OCCO)c(OCCO)c4)oc4cc(OCCO)cc(O)c4c3=O)[C@H](O)[C@@H](O)[C@@H]2O)[C@H](O)[C@H](O)[C@H]1O [troxerutin]	–	14.2317 10^4 L/mol
